In general, IC50 refers to the point on the concentration scale where inhibition reaches its midpoint. High values mean a need for much substance, low ones inhibition by little substance.

Structures are written as SMILES.

This is an account of results in US20200354331A1, “ICARIIN DERIVATIVES” (H. LEE MOFFITT CANCER CENTER AND RESEARCH INSTITUTE, INC., priority 2014, published 2020).

In experiment [1] the test system is NK cells and lymphokine-activated killer cells. The settings on record: 0.1 to 1.0 microgram/ml; tumor patients and healthy donors; cited from earlier work.
Experiment [2] concerns B16. Briefly: IC50 of ICT in cell lines. The settings on record: Mus musculus. In kind it is cell-based.
For experiment [3], the system named is B16. The experiment is described as follows: Apoptosis rates of ICT in cell lines. In kind it is cell-based.
The next experiment concerns Raji. Briefly: Apoptosis rates of ICT in cell lines. In kind it is cell-based.
For a further experiment, the system named is Bone marrow. Briefly: Apoptosis rates of ICT in cell lines. In kind it is cell-based.
For another experiment, the system named is PBMC. Briefly: Apoptosis rates of ICT in cell lines. The experiment is classed as cell-based.
The test system of experiment [4] is IL-10, TGFb, TNFa, ARG2 and NOS2. Briefly: Expression of suppressive factors in PBMC (Q-PCR). In kind it is cell-based. To be noted: healthy PBMC, 48 hours, 20 μM. The protocol:
Healthy PBMC were cultured for 48 hours with 20 μM the gene expression of suppressive factors measured by the DDCt method. The experimental control is PBMC treated with DMSO and the internal control was GAPDH. Error bars indicate the SEM of three separate donors/experiments.

Regarding `COc1ccc(-c2oc3c(CC=C(C)C)c(O[C@@H]4O[C@H](CO)[C@@H](O)[C@H](O)[C@H]4O)cc(O)c3c(=O)c2O[C@@H]2O[C@@H](C)[C@H](O)[C@@H](O)[C@H]2O)cc1` [ICA, Icariin], the “NK cell activity and LAK activity” value in experiment [1] is “increase NK cell activity and lymphokine-activated killer cell (LAK) activity”.

`COc1ccc(-c2oc3c(CCC(C)(C)O)c(O)cc(O)c3c(=O)c2O)cc1` [ICT, 3,5,7-trihydroxy-4′-methoxy-8-(3-hydroxy-3-methylbutyl)-flavone]: the IC50 with B16 [2] was 25.8 µM. Further, the Apoptosis rates in the experiment with B16 [3] (B16, 5 μM) was 2.5%; in the experiment on B16 [3] (B16, 10 μM), 3.8%; in the experiment with B16 [3] (B16, 20 μM) it was 3.5%; in the experiment on Raji (5 μM) it was 9.1%; in the experiment on Raji (10 μM), 9.2%; with Raji (20 μM), 10.0%. Moreover, the Apoptosis rates in the experiment on Bone marrow (5 μM) is 2.7%; in the experiment with Bone marrow (10 μM) it was 4.3%; in the experiment with Bone marrow (20 μM), 4.8%; in the experiment with PBMC (5 μM), 4.6%; with PBMC (10 μM) it was 5.5%; with PBMC (20 μM), 6.9%. For the same molecule, in experiment [4], the “expression of suppressive factors in PBMC” value is reported as “down-regulate the expression of suppressive factors in PBMC”.
